According to patent US11918592B2, “Inhibitors of cyclin dependent kinase 7 (CDK7)” (Syros Pharmaceuticals, Inc., priority 2018, dated 2024):
Where two headings read alike, the source gives them in different places.

What was measured:
CDK2/Cyclin E1 complex = CDK2/Cyclin E1 complex (Homo sapiens, UniProt P24941); assay: CDK2 kinase inhibition assay (Caliper/LabChip EZ Reader)
Method: (§2) Compounds of the invention were assayed for inhibition of CDK7, CDK9, CDK12, and CDK2 activity at Biortus Biosciences (Jiangyin, Jiangsu Province, P.R. of China) using kinase assays for each CDK developed with a Caliper/LabChip EZ Reader (Perkin Elmer, Waltham, MA).
(§3) Furthermore, the CDK9 inhibition assay used CDK9/Cyclin T1 complex (8 nM) and “5-FAM-CDK9tide” peptide substrate (2 μM, synthesized fluorophore-labeled peptide with the following sequence: 5-FAM-GSRTPMY-NH2 (SEQ ID NO:2) where 5-FAM is defined above and NH2 signifies a C-terminal amide) with 10 mM MgCl2 in the buffer composition listed above. The CDK12 inhibition assay used CDK12 (aa686-1082)/Cyclin K complex (50 nM) and “5-FAM-CDK9tide” (2 μM) as defined above, with 2 mM MgCl2 in the buffer composition above. Additionally, the CDK2 inhibition assay used CDK2/Cyclin E1 complex (0.5 nM) and “5-FAM-CDK7tide” (2 μM) as defined above, with 2 mM MgCl2 in the buffer composition listed above.
(§4) The incubation period at 27° C. for each CDK inhibition assay was chosen such that the fraction of phosphorylated peptide product produced in each assay, relative to the total peptide concentration, was approximately 20% (±5%) for the uninhibited kinase (35 min. for CDK7, 35 min. for CDK2, 3 hr. for CDK12, 15 min. for CDK9).

CDK9/Cyclin T1 complex = CDK9/Cyclin T1 complex (Homo sapiens, UniProt P50750); assay: CDK9 kinase inhibition assay (Caliper/LabChip EZ Reader)
Sequence of CDK9/Cyclin T1 complex (P50750 whole entry): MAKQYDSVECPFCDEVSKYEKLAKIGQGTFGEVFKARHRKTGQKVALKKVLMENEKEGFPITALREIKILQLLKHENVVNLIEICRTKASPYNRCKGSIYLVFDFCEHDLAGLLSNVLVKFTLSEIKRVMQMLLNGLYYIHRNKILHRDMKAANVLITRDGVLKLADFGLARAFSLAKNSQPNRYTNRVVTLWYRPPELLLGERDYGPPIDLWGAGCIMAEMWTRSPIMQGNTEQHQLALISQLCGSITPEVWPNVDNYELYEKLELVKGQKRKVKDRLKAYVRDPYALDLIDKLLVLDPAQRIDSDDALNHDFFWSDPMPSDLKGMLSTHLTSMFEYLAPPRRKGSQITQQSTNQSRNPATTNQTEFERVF
Sequence of CDK9/Cyclin T1 complex (O60563 whole entry partner): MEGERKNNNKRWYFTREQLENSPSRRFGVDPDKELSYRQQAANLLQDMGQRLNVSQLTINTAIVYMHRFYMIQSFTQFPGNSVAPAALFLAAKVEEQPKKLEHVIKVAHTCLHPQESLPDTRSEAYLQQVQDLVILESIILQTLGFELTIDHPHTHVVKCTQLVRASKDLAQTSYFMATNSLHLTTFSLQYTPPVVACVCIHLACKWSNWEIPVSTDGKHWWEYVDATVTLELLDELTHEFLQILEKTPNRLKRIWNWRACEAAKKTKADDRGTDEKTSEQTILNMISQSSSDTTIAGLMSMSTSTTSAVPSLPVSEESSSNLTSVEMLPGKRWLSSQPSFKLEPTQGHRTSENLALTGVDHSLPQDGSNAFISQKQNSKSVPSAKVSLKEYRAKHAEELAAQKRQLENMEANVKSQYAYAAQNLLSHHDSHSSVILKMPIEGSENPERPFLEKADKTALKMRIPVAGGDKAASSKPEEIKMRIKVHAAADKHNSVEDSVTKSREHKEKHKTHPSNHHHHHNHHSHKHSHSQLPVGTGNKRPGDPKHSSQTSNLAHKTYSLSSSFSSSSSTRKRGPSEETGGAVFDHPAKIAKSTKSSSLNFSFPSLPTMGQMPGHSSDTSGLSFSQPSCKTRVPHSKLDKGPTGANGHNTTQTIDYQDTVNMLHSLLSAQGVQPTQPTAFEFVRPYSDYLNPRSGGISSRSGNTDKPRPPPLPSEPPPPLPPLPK
Method: as §2, §3, §4

COV504 cells = assay: Inhibition of cell proliferation, CyQUANT Direct, COV504; type: cell-based; conditions: Homo sapiens; COV504 ovarian cancer cells, 72-hour; read-out: COV 504 proliferation calculated IC50
Method: (§1) HCC70 and MB453 cells are cell lines derived from human triple negative breast cancer. COV318 and COV504 cells are cell lines derived from human ovarian cancer. Representative compounds of the invention were tested at different concentrations (from 4 μM to 126.4 pM; 0.5 log serial dilutions) for their ability to inhibit the proliferation of each of these cell lines. Known CDK inhibitors dinaciclib or N-((1S,3R)-3-((5-chloro-4-(1H-indol-3-yl) pyrimidin-2-yl)amino)cyclohexyl)-5-((E)-4-(dimethylamino)but-2-enamido)picolinamide and triptolide were used as positive controls. Cells were seeded at approximately 2,000 cells/well and grown in ATCC-formulated RPMI-1640 Medium (ATCC 30-2001)+10% FBS. The cells were cultured at 37° C. in a humidified chamber in the presence of 5% CO2. Proliferation assays were conducted over a 72-hour time period. CyQUANT® Direct Cell Proliferation Assay (Life Technologies, Chicago, IL USA) was used to assess the anti-proliferative effects of the compounds following manufacturer's directions and utilizing the reagents supplied with the CyQUANT® Direct Cell kit.

COV318 cells = assay: Inhibition of cell proliferation, CyQUANT Direct, COV318; type: cell-based; conditions: Homo sapiens; COV318 ovarian cancer cells, 72-hour; read-out: COV 318 proliferation calculated IC50
Method: as §1

MB453 cells = assay: Inhibition of cell proliferation, CyQUANT Direct, MB453; type: cell-based, human; conditions: MB453 triple negative breast cancer cells, 72-hour, read-out: MB 453 proliferation calculated IC50
Method: as §1

[1] = molecular target: CDK7/Cyclin H/MAT1 complex (Homo sapiens, UniProt P50613); assay: CDK7 kinase inhibition assay (Caliper/LabChip EZ Reader)
Sequence of CDK7/Cyclin H/MAT1 complex (P50613 whole entry): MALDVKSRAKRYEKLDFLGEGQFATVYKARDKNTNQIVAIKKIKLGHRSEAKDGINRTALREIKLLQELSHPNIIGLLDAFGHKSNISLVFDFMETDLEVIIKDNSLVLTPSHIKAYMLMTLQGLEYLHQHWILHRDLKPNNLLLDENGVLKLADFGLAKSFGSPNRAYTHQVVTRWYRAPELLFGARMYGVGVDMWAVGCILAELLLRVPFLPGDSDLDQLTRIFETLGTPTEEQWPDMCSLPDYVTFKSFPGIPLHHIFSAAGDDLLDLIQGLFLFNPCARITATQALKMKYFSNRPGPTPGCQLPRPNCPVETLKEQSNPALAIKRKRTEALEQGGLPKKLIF
Sequence of CDK7/Cyclin H/MAT1 complex (P51946 whole entry partner): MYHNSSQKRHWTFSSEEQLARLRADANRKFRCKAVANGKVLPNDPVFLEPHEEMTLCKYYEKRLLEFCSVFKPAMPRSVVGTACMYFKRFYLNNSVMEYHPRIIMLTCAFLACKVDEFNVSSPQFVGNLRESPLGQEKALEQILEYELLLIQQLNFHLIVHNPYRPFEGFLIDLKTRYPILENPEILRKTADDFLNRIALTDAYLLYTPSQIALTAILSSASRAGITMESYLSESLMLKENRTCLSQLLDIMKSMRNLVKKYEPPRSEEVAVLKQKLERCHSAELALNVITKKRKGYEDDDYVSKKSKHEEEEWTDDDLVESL
Sequence of CDK7/Cyclin H/MAT1 complex (P51948 whole entry partner): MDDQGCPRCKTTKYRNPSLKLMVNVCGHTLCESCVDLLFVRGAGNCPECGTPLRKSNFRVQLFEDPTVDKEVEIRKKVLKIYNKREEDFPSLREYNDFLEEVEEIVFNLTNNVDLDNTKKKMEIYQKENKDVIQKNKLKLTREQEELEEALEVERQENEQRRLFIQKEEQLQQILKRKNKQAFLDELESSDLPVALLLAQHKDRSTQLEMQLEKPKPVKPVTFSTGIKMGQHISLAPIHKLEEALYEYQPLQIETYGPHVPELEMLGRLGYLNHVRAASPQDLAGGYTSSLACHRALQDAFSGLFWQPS
Method: as §2, §3, §4

HCC70 cells = assay: Inhibition of cell proliferation, CyQUANT Direct, HCC70; type: cell-based, human; conditions: HCC70 triple negative breast cancer cells, 72-hour, read-out: HCC 70 proliferation calculated IC50
Method: as §1

[2] = molecular target: CDK12 (aa686-1082)/Cyclin K complex (Homo sapiens, UniProt Q9NYV4); assay: CDK12 kinase inhibition assay (Caliper/LabChip EZ Reader)
Sequence of CDK12 (aa686-1082)/Cyclin K complex (Q9NYV4 686-1082): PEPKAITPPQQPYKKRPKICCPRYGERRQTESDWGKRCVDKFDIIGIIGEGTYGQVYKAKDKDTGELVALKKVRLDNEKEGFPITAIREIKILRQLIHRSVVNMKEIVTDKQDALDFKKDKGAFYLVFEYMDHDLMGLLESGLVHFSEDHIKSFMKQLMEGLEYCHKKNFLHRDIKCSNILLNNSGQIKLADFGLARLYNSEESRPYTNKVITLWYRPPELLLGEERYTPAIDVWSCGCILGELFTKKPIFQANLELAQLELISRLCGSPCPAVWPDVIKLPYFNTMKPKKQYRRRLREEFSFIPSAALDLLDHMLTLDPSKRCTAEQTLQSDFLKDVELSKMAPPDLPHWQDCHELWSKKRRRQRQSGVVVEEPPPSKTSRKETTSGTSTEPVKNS
Sequence of CDK12 (aa686-1082)/Cyclin K complex (O75909 whole entry partner, the tested form may be a part): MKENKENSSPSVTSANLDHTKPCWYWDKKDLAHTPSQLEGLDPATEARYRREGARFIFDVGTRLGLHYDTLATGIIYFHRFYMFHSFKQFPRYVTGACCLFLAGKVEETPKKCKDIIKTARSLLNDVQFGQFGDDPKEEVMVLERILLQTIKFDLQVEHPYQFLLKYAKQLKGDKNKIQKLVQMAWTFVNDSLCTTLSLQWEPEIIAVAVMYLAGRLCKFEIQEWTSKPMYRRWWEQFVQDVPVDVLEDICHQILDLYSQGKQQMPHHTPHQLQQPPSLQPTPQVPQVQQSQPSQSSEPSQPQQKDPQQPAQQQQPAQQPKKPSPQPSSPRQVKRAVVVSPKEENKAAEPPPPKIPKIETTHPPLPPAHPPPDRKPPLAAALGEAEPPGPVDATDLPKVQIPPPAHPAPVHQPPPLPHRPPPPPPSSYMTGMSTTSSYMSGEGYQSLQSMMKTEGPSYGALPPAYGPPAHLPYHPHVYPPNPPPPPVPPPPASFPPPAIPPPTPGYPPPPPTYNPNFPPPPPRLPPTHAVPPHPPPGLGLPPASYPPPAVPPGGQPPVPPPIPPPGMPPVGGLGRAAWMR
Method: as §2, §3, §4

Structure (SMILES) | IC50 (CDK2/Cyclin E1 complex) [nM] | IC50 (CDK9/Cyclin T1 complex) [nM] | IC50 (COV504 cells) [nM] | IC50 (COV318 cells) [nM] | IC50 (MB453 cells; Homo sapiens) [nM] | IC50 [1] [nM] | IC50 (HCC70 cells; Homo sapiens) [nM] | IC50 [2] [nM] | IC50 (CDK2/Cyclin E1 complex; read-out: CDK 2 calculated IC50, ATP 2 mM, 27° C., 35 min incubation, 2 mM MgCl2) [nM] | IC50 (CDK9/Cyclin T1 complex; read-out: CDK 9 calculated IC50, ATP 2 mM, 27° C., 15 min incubation, 10 mM MgCl2) [nM] | IC50 (MB453 cells) [nM] | IC50 ([1]; read-out: CDK 7 calculated IC50, ATP 2 mM, 27° C., 35 min incubation, 6 mM MgCl2) [nM] | IC50 (HCC70 cells) [nM] | IC50 ([2]; read-out: CDK 12 calculated IC50, ATP 2 mM, 27° C., 3 hr incubation, 2 mM MgCl2) [nM]
Cc1noc(C)c1-c1ccc2c(-c3nc(N[C@H]4CCC[C@@H]4N)ncc3C(F)(F)F)n[nH]c2n1 [Compound 157, (1S,2S)—N1-[4-[6-(3,5-dimethylisoxazol-4-yl)-1H-pyrazolo [3,4-b]pyridin-3-yl]-5-(trifluoromethyl)pyrimidin-2-yl]cyclopentane-1,2-diamine] | > 500 | > 500 | 100 to 500 | 100 to 500 | 100 to 500 | < 30 | 100 to 500 | > 500 | – | – | – | – | – | –
CCN[C@H]1CC[C@@H]1Nc1ncc(C(F)(F)F)c(-c2c[nH]c3cc(C#N)ccc23)n1 [Compound 131, 3-[2-[[(1S,2S)-2-(ethylamino)cyclobutyl]-amino]-5-(trifluoromethyl)pyrimidin-4-yl]-1H-indole-6-carbonitrile] | > 500 | > 500 | 100 to 500 | 500 to 2000 | 100 to 500 | < 30 | 500 to 2000 | > 500 | – | – | – | – | – | –
C[C@@H]1C[C@H](Nc2ncc(C(F)(F)F)c(-c3c[nH]c4cc(C#N)ccc34)n2)CN1 [Compound 108] | > 500 | > 500 | 500 to 2000 | > 2000 | 500 to 2000 | 30 to 100 | 500 to 2000 | > 500 | – | – | – | – | – | –
CCN[C@H]1CCC[C@@H]1Nc1ncc(C(F)(F)F)c(-c2c[nH]c3cc(C#N)ccc23)n1 [Compound 128, 3-[2-[[(1S,2S)-2-(ethylamino)cyclopentyl]-amino]-5-(trifluoromethyl)pyrimidin-4-yl]-1H-indole-6-carbonitrile] | > 500 | > 500 | < 100 | 100 to 500 | < 100 | < 30 | < 100 | > 500 | – | – | – | – | – | –
Cc1noc(C)c1-c1ccc2c(-c3nc(N[C@H]4CC[C@@H]4N)ncc3C(F)(F)F)c[nH]c2n1 [Compound 129, (1S,2S)—N2-[4-[6-(3,5-dimethylisoxazol-4-yl)-1H-pyrrolo[2,3-b]pyridin-3-yl]-5-(trifluoromethyl)pyrimidin-2-yl]-cyclobutane-1,2-diamine] | > 500 | > 500 | < 100 | 100 to 500 | < 100 | < 30 | 100 to 500 | > 500 | – | – | – | – | – | –
N#Cc1ccc2c(-c3nc(N[C@H]4CCCC[C@@H]4N)ncc3C(F)(F)F)c[nH]c2c1 [Compound 100] | > 500 | > 500 | > 2000 | > 2000 | 500 to 2000 | > 500 | > 2000 | > 500 | – | – | – | – | – | –
CCN[C@H]1CC[C@@H]1Nc1ncc(C(F)(F)F)c(-c2c[nH]c3nc(-c4c(C)noc4C)ccc23)n1 [Compound 160, (1S,2S)—N2-[4-[6-(3,5-dimethylisoxazol-4-yl)-1H-pyrrolo[2,3-b]pyridin-3-yl]-5-(trifluoromethyl)pyrimidin-2-yl]-N1-ethyl-cyclobutane-1,2-diamine] | > 500 | > 500 | < 100 | < 100 | < 100 | < 30 | < 100 | > 500 | – | – | – | – | – | –
N#Cc1ccc2c(-c3nc(N[C@H]4CCC[C@@H]4N4CCCC4)ncc3C(F)(F)F)c[nH]c2c1 [Compound 122] | > 500 | > 500 | 100 to 500 | 100 to 500 | 100 to 500 | 30 to 100 | 100 to 500 | > 500 | – | – | – | – | – | –
CN1CC[C@H](Nc2ncc(C(F)(F)F)c(-c3c[nH]c4cc(C#N)ccc34)n2)C1 [Compound 109] | > 500 | > 500 | 500 to 2000 | 500 to 2000 | 500 to 2000 | 100 to 500 | 500 to 2000 | > 500 | – | – | – | – | – | –
CP(C)(=O)c1c(C#N)ccc2c(-c3nc(N[C@H]4CCC[C@@H]4N)ncc3C(F)(F)F)c[nH]c12 [Compound 161, 3-[2-[[(1S,2S)-2-aminocyclopentyl]amino]-5-(trifluoromethyl)pyrimidin-4-yl]-7-dimethylphosphoryl-1H-indole-6-carbonitrile] | > 500 | > 500 | < 100 | 100 to 500 | < 100 | < 30 | < 100 | > 500 | – | – | – | – | – | –
N#Cc1ccc2c(-c3nc(N[C@H]4CN[C@H](CO)C4)ncc3C(F)(F)F)c[nH]c2c1 [Compound 112] | > 500 | > 500 | > 2000 | > 2000 | 500 to 2000 | 100 to 500 | > 2000 | > 500 | – | – | – | – | – | –
COC1CN([C@H]2CCC[C@@H]2Nc2ncc(C(F)(F)F)c(-c3c[nH]c4nc(-c5c(C)noc5C)ccc34)n2)C1 [Compound 164, 4-[6-(3,5-dimethylisoxazol-4-yl)-1H-pyrrolo[2,3-b]pyridin-3-yl]-N-[(1S,2S)-2-(3-methoxyazetidin-1-yl)cyclopentyl]-5-(trifluoromethyl)pyrimidin-2-amine] | > 500 | > 500 | 100 to 500 | > 2000 | 100 to 500 | < 30 | 100 to 500 | > 500 | – | – | – | – | – | –
CC(=O)N[C@H]1CCC[C@@H]1Nc1ncc(C(F)(F)F)c(-c2c[nH]c3cc(C#N)ccc23)n1 [Compound 120, N-[(1S,2S)-2-[[4-(6-cyano-1H-indol-3-yl)-5-(trifluoromethyl)pyrimidin-2-yl]-amino]cyclopentyl]-acetamide] | > 500 | > 500 | > 2000 | > 2000 | > 2000 | > 500 | > 2000 | > 500 | – | – | – | – | – | –
N#Cc1ccc2c(-c3nc(N[C@@H]4CC[C@H]4N4CCCC4)ncc3C(F)(F)F)c[nH]c2c1 [Compound 136, 3-[2-[[(1R,2R)-2-pyrrolidin-1-ylcyclobutyl]-amino]-5-(trifluoromethyl)pyrimidin-4-yl]-1H-indole-6-carbonitrile] | > 500 | > 500 | – | – | – | 100 to 500 | – | > 500 | – | – | – | – | – | –
Cc1noc(C)c1-c1ccc2c(-c3nc(N[C@@H]4C[C@H]5CC[C@@H]4N5)ncc3C(F)(F)F)c[nH]c2c1 [Compound 138, (1R,2R,4S)—N-[4-[6-(3,5-dimethylisoxazol-4-yl)-1H-indol-3-yl]-5-(trifluoromethyl)pyrimidin-2-yl]-7-azabicyclo-[2.2.1]-heptan-3-amine] | – | – | – | – | – | – | – | – | > 500 | > 500 | 100 to 500 | 30 to 100 | 100 to 500 | > 500
COC1CCN([C@H]2CCC[C@@H]2Nc2ncc(C(F)(F)F)c(-c3c[nH]c4nc(-c5c(C)noc5C)ccc34)n2)C1 (some centres unmarked) [Compound 153] | – | – | 100 to 500 | > 2000 | 500 to 2000 | – | 100 to 500 | – | – | – | – | – | – | –
CP(C)(=O)c1c(C(N)=O)ccc2c(-c3nc(N[C@H]4CCC[C@@H]4N)ncc3C(F)(F)F)c[nH]c12 [Compound 162, 3-[2-[[(1S,2S)-2-aminocyclopentyl]amino]-5(trifluoromethyl)pyrimidin-4-yl]-7-dimethylphosphoryl-1H-indole-6-carboxamide] | > 500 | > 500 | – | – | – | < 30 | – | – | – | – | – | – | – | –
COCCN[C@@H]1CC[C@H]1Nc1ncc(C(F)(F)F)c(-c2c[nH]c3cc(C#N)ccc23)n1 [Compound 134] | > 500 | > 500 | – | – | – | > 500 | – | > 500 | – | – | – | – | – | –
